Where two headings read alike, the source gives them in different places.
Columns and labels:
PAO1 [1] = experiment: Bacterial burden in bronchoalveolar lavage and lung histopathology, PAO1-infected mice; assay type: in vivo, C57BL/6J mice
Text: (§1) Animal studies. 6-week-old female C57BL/6J mice used in this study were acquired from the Experimental Animal Center of Xian Jiaotong University. All the animals were maintained in animal care facilities in the School of Life Science and Technology, and provided with food and water ad libitum. The animal studies were approved by the Committee on Animal Research and Ethics, Xi'an Jiaotong University.
C57BL/6J mice were lightly anesthetized with inhaled sevoflurane and infected by intranasal instillation of PAO1 (1×10^7 CFU in 20 μL PBS) after lightly anesthetized with inhaled sevoflurane. Tanshinone inhibitors were administrated to the animals along with bacterial inoculation (100 μM, 1% DMSO). PBS containing 1% DMSO was used as mock treatment. 18 hours after infection, animals were sacrificed and bronchoalveolar lavages were collected and plated to obtain the bacterial counts in the lavages. The lungs of sacrificed mice were then isolated and fixed in 10% buffered formalin, paraffin embedded and hematoxylin-eosin-stained for histopathological examination. Pathological scores of the tissues were assigned according to the degree of inflammation.

[2] = system: secretion of ExoS by PAO1; experiment: Inhibition of T3SS-mediated effector secretion (ExoS Western blot); assay type: cell-based, Pseudomonas aeruginosa; details: PAO1 under low-calcium conditions; for inhibition of ExoS secretion: 100 μM
Method: Inhibition of T3SS-mediated effector secretion. For T3SS induction, PAO1 overnight cultures were diluted to an OD at 600 nm of 0.3 in LB containing 5 mM EGTA and 20 mM MgCl2, in the presence of tanshinone inhibitors ([…]), followed by an incubation with mild agitation of additional 3-4 hours until the cultures reached an OD value of 1.5. NC group were cultured in LB and 2% DMSO, PC group were cultured in LB containing 5 mM EGTA, 20 mM MgCl2 and 2% DMSO. Culture supernatant was collected by centrifugation at 4000 g for 15 min at 4° C. and secreted proteins were concentrated by adding ice-cold trichloroacetic acid to a final concentration of 10% (V/V). Following a 2 hours' incubation on ice, the pellets were washed twice with cold acetone and suspended in an SDS-PAGE sample buffer (with 2-mercaptoethanol) according to the BCA protein assay protocol. Secreted and total proteins (supernatant and pelleted bacteria) were analyzed by immunoblotting with an anti-ExoS antibody (Agrisera, AS05056, at 1:4000 dilution) and corresponding HRP-conjugated secondary antibody. The blots were semi-quantified using ImageJ 1.51 k (from http://imagej.nih.gov/ij). The results were expressed as the mean±SD percentage of secreted ExoS out of total ExoS of three independent experiments.

[3] = system: cytotoxicity of PAO1 to murine macrophages (J774A.1); experiment: Cytoplasmic lactate dehydrogenase (LDH) release assay, PAO1-infected macrophages; assay type: cell-based, mouse; details: for EC50: Mus musculus; for inhibition of Pseudomonas aeruginosa-induced cell lysis (LDH release), words: different concentrations, MOI 8, 5 hours
Text: Cytoplasmic lactate dehydrogenase (LDH) release assay. […] LDH released into supernatant was detected by LDH detection kit (Beyotime, C0017) as instructed by the manufacturer.

PscE-PscG heterodimer [4] = target: T1, PscE-PscG heterodimer (Pseudomonas aeruginosa, UniProt P95435); experiment: 15N-1H HSQC NMR of 15N-PscG-PscE with dHTSN1; assay type: binding; design: inferred from the Ni-NTA purification; made in house; host or cells: PscG: E. coli (15N MOPS medium); PscE: chemical synthesis; details: molar ratio 1:1:1
Method: PscG was uniformly labeled with ^15N MOPS medium containing 1 g/L ^15NH4Cl as the sole source and BME vitamins (Sigma, USA). Cells were harvested by centrifugation at 6000 g for 30 min, resuspended in a lysis buffer containing 6 M urea, and subjected to a 1-min sonication, followed by two-cycle homogenization at 4° C. The lysates were centrifuged at 20,000 rpm for 30 min, and the supernatant was loaded onto a 10 ml Ni-NTA agarose column (Qiagen, USA). The elute was concentrated to 10-12 ml under denaturation conditions, followed by purification on a Sep-Pak C18 column. Peak fractions containing ^15N-PscG were lyophilized. […] The mixtures were dialyzed against the same buffer overnight and then concentrated to ˜300 μl.
All NMR samples were prepared in an NMR buffer containing 20 mM sodium phosphate (pH 7.4), 100 mM NaCl, 0.1% NaN3, 10% D2O and 2 mM DTT. The final protein concentrations were approximately 26 μM and 47.8 μM for ^15N-PscG-PscE and ^15N-PscG-PscE-dHTSN1 complexes, respectively. All NMR spectra were collected at 25° C. on a Bruker Avance 700 MHz spectrometer equipped with a triple-resonance pulse-field gradient probe. ^15N-^1H HSQC NMR spectra were recorded in the echo-antiecho mode for quadrature detection. All datasets were acquired with 2048 complex points in t2 and 256 complex points in t1.
Target sequence in this assay (Q9I317 whole entry): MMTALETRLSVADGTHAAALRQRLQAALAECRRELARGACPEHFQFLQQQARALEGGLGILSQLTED
Target sequence in this assay (P95435 whole entry): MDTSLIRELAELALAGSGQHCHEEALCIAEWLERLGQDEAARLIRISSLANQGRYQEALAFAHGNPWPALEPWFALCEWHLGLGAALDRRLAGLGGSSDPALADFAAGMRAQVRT

PAO1 [5] = experiment: Survival study, murine model of acute pneumonia; assay type: in vivo, C57BL/6J mice; details: for mice died of infection within 48 h, first treatment 8 h after challenge: mock-treated 85%
Method: as §1
For survival study, tanshinone inhibitors (100 μM, 1% DMSO, in 10 μL PBS) were administrated to the infected animals intranasally at the time of infection, or 8 h after infection, and every 12 hours till the death of the animal or the end of the experiment. PBS containing 1% DMSO was used as mock treatment.

[6] = system: intracellular PAO1 in J774A.1 cells; details: different concentrations, gentamicin at 2 h post infection
Method: Quantification of bacterial internalization. 5×10^4 J774a cells were seeded into each well of a 24-well plate and grown for 24 h before infection. One hour before the infection, cell culture medium was changed into serum-free medium and PAO-1 from mid-exponential phase was added to the cells at a multiplicity of infection (MOI) of 8. In the presence of different concentration of tanshinone inhibitors (0-100 μM compound, 2% DMSO), bacteria/cells mixtures were incubated for 2 hours and washed, then treated with gentamicin-containing (50 μg/ml) medium for another 2 hours before being lysed for plating. Internalized bacteria were defined as the total number of intracellular bacteria in cells (extracellular bacteria were killed by gentamicin, a cell-impermeable antibiotic). Results were normalized against the intracellular bacteria number by PAO-1-infected cells with mock treatment (2% DMSO). Average results of three independent experiments are shown as mean±SD.

PscE-PscG heterodimer [7] = target: T1, PscE-PscG heterodimer; assay type: binding; design: made in house; host or cells: total chemical synthesis (solid phase peptide synthesis and native chemical ligation), no expression host; details: FP competition with FAM-PscF69-85 for PscE-PscG
Method: Fluorescence polarization (FP) and FP-based competitive binding assays. All fluorescence polarization assays were done using black, low protein binding 96-well plates (Thermo Fisher Scientific) in a total volume of 100 μl per well of 10 mM Tris buffer containing 150 mM NaCl and 1 mM EDTA, pH 7.0, unless indicated otherwise. After a gentle mixing and incubation for 3 h, FP readings were taken at 470 nm (excitation) and 530 nm (emission) wavelengths on a Tecan Infinite M2000 fluorescence plate reader. Nonlinear regression analyses were performed to give rise to Kd and IC50 values as previously described.
For direct binding of PscF to PscG or PscE-PscG, equal volumes of FAM-PscF^69-85 (400 nM) and serially diluted PscG or PscE-PscG (0-64 μM) were mixed. For initial screening, 95 μl of FAM-PscF^69-85-PscE-PscG (100 nM) in the assay buffer was mixed with 5 μl of small molecule inhibitor in DMSO to a final molar concentration of 1, 10, 100, or 1000 μM. 5% DMSO and 6 M GuHCl in the final assay buffer were used as negative and positive controls, respectively. For secondary screening or competitive binding assays, 95 μl of FAM-PscF^69-85-PscE-PscG (100 nM) in the assay buffer was mixed with 5 μl of serially diluted PscF^69-85 or various tanshinone analogs (0-200 μM).
Target sequence in this assay (P95435 1-114): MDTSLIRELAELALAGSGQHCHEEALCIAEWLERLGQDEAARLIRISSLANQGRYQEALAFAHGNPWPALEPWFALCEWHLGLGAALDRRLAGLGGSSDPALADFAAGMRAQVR
Target sequence in this assay (Q9I317 whole entry, further chain): as the sequence (Q9I317 whole entry) above

[8] = target: T2, PscF^69-85-PscE-PscG complex (Pseudomonas aeruginosa, UniProt P95435); experiment: CD spectroscopy and thermal denaturation of the heterotrimer; details: for effect on helicity of the heterotrimeric complex: CD, 20 μM heterotrimer, 25° C., 10 mM phosphate buffer, pH 7.4
T2 construct: made in house; host or cells: total chemical synthesis (solid phase peptide synthesis and native chemical ligation), no expression host
Method: Circular dichroism (CD) spectroscopy and thermal denaturation. […] Protein thermal denaturation was carried out in PBS using a JASCO circular dichroism spectrometer equipped with temperature controller. […] Under constant stirring, measurement was taken at one-degree interval between 25° C. and 90° C., at a heating rate of 1° C. per minute. After each 1-minute heating, the solution in the cuvette was waited for 20 s before signals were detected over a 16 s period. Heating and data acquisition were fully automated with the control software provided by JASCO. Data processing was performed as previously described.

[9] = J774.A1, read-out: EC50, LDH release normalized against PAO1 ΔpscC
[10] = J774.A1, normalized against mock-treated PAO1-infected cells, read-out: EC50, inhibition of PAO1 cytotoxicity to macrophages (LDH release)
[11] = first intranasal dose 8 h after PAO1

T2 sequence (Q9I317 whole entry): as above
T2 sequence (P95435 2-115): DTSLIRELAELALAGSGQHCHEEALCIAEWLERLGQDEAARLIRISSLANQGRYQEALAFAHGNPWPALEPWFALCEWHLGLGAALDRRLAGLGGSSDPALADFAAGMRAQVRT

SMILES	inhibition of ExoS secretion [2]	EC50 [3, 9] [µM]	EC50 [3, 10] [µM]	inhibition of Pseudomonas aeruginosa-induced cell lysis (LDH release), words [3]	mice died of infection within 48 h, first treatment 8 h after challenge (PAO1 [5]; [11]) [%]	activity in FP competition assay (PscE-PscG heterodimer [7])	further results
Cc1cccc2c3c(ccc12)C1=C(C(=O)C3=O)[C@@H](C)CO1 [dHTSN1, dihydrotanshinone 1]	more active than TSN1	~3	25	inhibited Pseudomonas aeruginosa-induced cell lysis in a dose dependent manner	5		lung inflammation, H&E staining (PAO1 [1]; 18 h post infection): significantly reduced inflammation; interaction with 15N-PscG-PscE complex by NMR (PscE-PscG heterodimer [4]): relatively strong interactions; infected mice survived beyond 96 h, first treatment 8 h after challenge (PAO1 [5]; [11]): 80%
CC(Oc1ccc(Cl)cc1Cl)C(=O)NCc1ccc2c(c1)OCO2 (stereo not shown) [MBX-1641, reference compound]						no effect	inhibition of intracellular bacterial survival / proliferation of PAO1 in macrophages [6]: inhibited; bacterial burden in bronchoalveolar lavage (PAO1 [1]; single dose 100 μM at time of infection, sampled 18 h post infection): reduced bacterial burden; inhibition of ExoS secretion (MBX-1641) ([2]; 6.25 μM): inhibited
Cc1cccc2c3c(ccc12)C(=O)C1=C(OC[C@H]1C)C3=O [dHTSN]	more active than TSN1	~3	12.5	inhibited Pseudomonas aeruginosa-induced cell lysis in a dose dependent manner	20		
C[C@H]1COC2=C1C(=O)C(=O)c1c2ccc2c1CCCC2(C)C [crpTSN, cryptotanshinone, reference compound]	no inhibitory activity			inactive		inactive	
Cc1coc2c1C(=O)C(=O)c1c-2ccc2c(C)cccc12 [TSN1, tanshinone 1]				inhibited Pseudomonas aeruginosa-induced cell lysis in a dose dependent manner	40		effect on helicity of the heterotrimeric complex [8]: reduced; effect on helicity of the heterotrimeric complex ([8]; listed as tanshinone 1): progressively decreases; effect on thermal stability of the heterotrimeric complex ([8]; added to preformed heterotrimer PscE-PscG-PscF^69-85): reduced; Tm of PscF^69-85-PscE-PscG complex in presence of compound ([8]; complex 20 μM in PBS, 300 μM tanshinone 1, CD at 222 nm, 54.8 in absence): 52.3 °C; protection of infected mice, treatment from time of infection (PAO1 [5]; 100 μM intranasal at time of infection and every 12 h): significantly protective
Cc1coc2c1C(=O)C(=O)c1c-2ccc2c1CCCC2(C)C [tanshinone 2A]						inactive	
